Biological target: Diacylglycerol kinase alpha (Homo sapiens, UniProt P23743)
Assay: Inhibition of His-tagged recombinant human DGKalpha using DLG as substrate preincubated with substrate and ATP for 1 mins followed by compound addition and measured after 90 mins by ADP-Glo kinase assay

Diacylglycerol kinase alpha, sequence (P23743 whole entry): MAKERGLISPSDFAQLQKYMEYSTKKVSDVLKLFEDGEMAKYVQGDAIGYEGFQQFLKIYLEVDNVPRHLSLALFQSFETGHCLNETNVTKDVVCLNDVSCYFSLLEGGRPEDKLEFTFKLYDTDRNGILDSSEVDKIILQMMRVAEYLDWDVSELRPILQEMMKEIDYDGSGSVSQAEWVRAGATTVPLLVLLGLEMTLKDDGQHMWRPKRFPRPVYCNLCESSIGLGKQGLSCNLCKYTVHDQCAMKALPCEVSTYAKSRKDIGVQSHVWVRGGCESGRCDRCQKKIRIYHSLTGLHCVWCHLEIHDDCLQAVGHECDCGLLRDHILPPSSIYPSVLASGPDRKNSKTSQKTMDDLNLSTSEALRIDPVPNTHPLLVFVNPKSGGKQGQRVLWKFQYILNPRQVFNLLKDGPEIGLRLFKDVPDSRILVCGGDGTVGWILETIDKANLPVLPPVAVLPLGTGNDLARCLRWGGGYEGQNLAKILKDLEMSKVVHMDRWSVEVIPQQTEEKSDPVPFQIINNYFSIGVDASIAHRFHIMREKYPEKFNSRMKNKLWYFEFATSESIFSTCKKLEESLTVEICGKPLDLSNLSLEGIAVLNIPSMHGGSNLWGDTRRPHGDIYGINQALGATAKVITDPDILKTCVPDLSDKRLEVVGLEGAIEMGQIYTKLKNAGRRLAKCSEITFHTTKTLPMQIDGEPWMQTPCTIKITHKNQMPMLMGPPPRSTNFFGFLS

## CCN1CCC2(CC1)CN(c1c(/C=C(\F)c3nccc(-c4ccnnc4)n3)ccc(Oc3ccccc3)c1C(F)(F)F)CCO2
  IC50: ≤ 20 nM

## COc1cc(F)ccc1Oc1ccc(/C=C(\F)c2nncc(N3CCC(F)(F)C3)n2)c(N2CCC[C@@H](CN)C2)c1Cl
  IC50: ≤ 20 nM

## F/C(=C\c1ccc(Oc2ccccc2F)c(C(F)(F)F)c1N1CCCC2(CCN(CC3CC3)CC2)C1)c1nccc(-c2cnsc2)n1
  IC50: ≤ 20 nM

## CCN1CCC2(CCCN(c3c(/C=C(\F)c4nccc(N5CC(F)(F)C5)n4)ccc(Oc4ccccc4F)c3C(F)(F)F)C2)CC1
  IC50: ≤ 20 nM

## NC[C@H]1CCCN1c1c(/C=C(\F)c2nccc(-c3ccnnc3)n2)ccc(Oc2ccccc2)c1Cl
  IC50: ≤ 20 nM
